From patent publication US20140057829A1, “Citrullinated Histone H3 (Cit H3) in Septic Shock” (THE GENERAL HOSPITAL CORPORATION, priority 2011, published 2014)
“Also recorded” adds a separate entry of the source.

Experiments:
[1] = tested on: rodent models of LPS-induced septic shock; conditions: rodent models of LPS-induced septic shock (Li et al. 2009, 2010); cited from earlier work
histone H3 in serum [2] = assay: iTRAQ screen for serum biomarkers in LPS-induced septic shock and SAHA treatment; assay type: in vivo; conditions: LPS-induced septic shock; 5 h after first SAHA treatment, 3 h after LPS injection
Procedure: To identify biomarkers of septic shock and treatment, isobaric tag labeling for relative and absolute quantitation (iTRAQ) was performed as described in WO 2010/126635 (which is incorporated herein by reference) in sham (no LPS and no treatment), septic shock (3 h after LPS injection) and SAHA treated (5 h after the first SAHA treatment, and 3 h after LPS injection) animals. Several potential serum biomarkers in LPS-induced septic shock and treatment were found. One of them was histone H3, a chromatin protein in nucleus.

HL-60 granulocytes = assay: Western blots of H3, Ac H3 and Cit H3 in lysates and medium of LPS-stimulated HL-60 granulocytes; assay type: cell-based, human; conditions: 3 h
Procedure: Neutrophils might be a source of serum histone H3 during sepsis. To test whether histone H3 deimination/citrullination is induced as part of the neutrophil response to bacterial endotoxin, HL-60 cells obtained from American Type Culture Collection (ATCC) were maintained in Iscove's modified DMEM medium (Invitrogen Life Technologies, Carlsbad, Calif.) supplemented with 20% fetal bovine serum (FBS). These cells were grown at 37° C. in a humidified incubator in 5% CO2 and 95% air, and differentiated into granulocytes by culturing the cells in medium containing 1 μM ATRA for 3 days. The ATRA-differentiated HL-60 granulocytes were treated with 4 μM calcium ionophore in medium containing 1.5 mM calcium chloride, and then incubated with LPS (100 ng/ml) in the presence or absence of SAHA (10 μM) over 3 h. Following incubation, medium was collected, and cell lysates were prepared. The medium and the lysates were tested for H3, Ac H3, Cit H3 and actin (internal control) by Western blots. To ensure there was no false positive data that may be produced from the medium with dead cells, the cells were carefully treated and a sham group was also set up as a control.

histone H3 in serum [3] = assay: Serum histone H3 by Western blot in LPS-induced septic shock mice treated with or without SAHA; assay type: in vivo; conditions: blood 3 h after LPS
Procedure: To assure that the data were reliable, independent serum samples were collected and analyzed. As in a previous study (Li et al., Shock. 2009; 32(5): 517-523), male C57B1/6J mice (n=9, 3/group) weighing 25-30 g (purchased from Jackson Labs (Bar Harbor, Me.)) were randomly divided into two groups: LPS control, and SAHA+LPS. Normal saline (10 μl/g body weight) or LPS (20 mg/kg) dissolved in normal saline was injected intraperitoneally. The mice were given DMSO (1 μl/g body weight) or SAHA (50 mg/kg) dissolved in DMSO intraperitoneally 2 hours (h) before, and then soon after injection of LPS. Sham mice (no LPS, no SAHA) were used as the control. Serum separated from these blood samples was saved at −80° C. and used for the current experiment. In the present study, a large dose (35 mg/kg) or a small dose (10 mg/kg) of LPS was administrated intraperitoneally. […] Survival rate was then recorded for over the next 7 days. […]
The samples were analyzed by Western blot with anti-histone H3 antibody. […] The primary antibody was detected by incubation with horseradish peroxidase-coupled second antibody (1:3,000 in PBST with 5% milk) at room temperature for 2 h. […] Films were developed using a standard photographic procedure and quantitative analysis of detected bands was carried out by densitometer scanning using VersaDoc Imaging System (BioRad Laboratories, Hercules, Calif.).

mice = assay: Survival of mice after small or large dose of LPS; assay type: in vivo; conditions: for survival rate: 7 day observation
Procedure: To assure that the data were reliable, independent serum samples were collected and analyzed. As in a previous study (Li et al., Shock. 2009; 32(5): 517-523), male C57B1/6J mice (n=9, 3/group) weighing 25-30 g (purchased from Jackson Labs (Bar Harbor, Me.)) were randomly divided into two groups: LPS control, and SAHA+LPS. Normal saline (10 μl/g body weight) or LPS (20 mg/kg) dissolved in normal saline was injected intraperitoneally. The mice were given DMSO (1 μl/g body weight) or SAHA (50 mg/kg) dissolved in DMSO intraperitoneally 2 hours (h) before, and then soon after injection of LPS. Sham mice (no LPS, no SAHA) were used as the control. Serum separated from these blood samples was saved at −80° C. and used for the current experiment. In the present study, a large dose (35 mg/kg) or a small dose (10 mg/kg) of LPS was administrated intraperitoneally. All animals were housed in plastic cages and had access to chow and water throughout the experiment. The animals were kept at room temperature (24±2° C.) and exposed to alternative cycles of 12 h light and darkness. Survival rate was then recorded for over the next 7 days. Blood was collected from the orbital sinus (as described in Hoff, Lab Animal. 2000; 29(10): 47-53) at 3 h after LPS injection.
It has been reported that the effects of LPS on lethality and protein expression are dose-dependent (Barton and Jackson, Infect Immun. 1993; 61(4): 1496-1499; Haque et al., Pneumon. 2009; 22(2): 143-155). To determine whether serum levels of H3, Cit H3 and acetylated H3 were dependent on the LPS dose, the mice were injected with a small dose ([…]) or a large dose ([…]). The serum levels of all three histone H3 were then measured and correlated to mortality. Mice were randomly divided into three groups (n=10/group): (1) sham group (no LPS), (2) LPS small dose (SD) group, and (3) LPS large dose (LD) group. Blood was collected at 3 h after LPS injection and serum was prepared for immunoblotting.

serum Cit H3 and H3 = assay: Serum Cit H3, H3 and Ac H3 by Western blot after small or large dose of LPS; assay type: in vivo, mice; conditions: 3 h after injection
Procedure: The samples were analyzed by Western blot with anti-histone H3 antibody. Western blot analysis was performed as follows. Proteins (about 100 μg per lane) were separated by sodium dodecyl sulphate-polyacrylamide gel electrophoresis (SDS-PAGE) on 15% polyacrylamide gels and transferred onto nitrocellulose membranes (Bio-Rad Laboratories, Hercules, Calif.). The membranes were blocked in 0.05% PBS-Tween (PBST) containing 5% milk (Bio-Rad Laboratories, Hercules, Calif.) and then incubated with the primary antibody at 4° C. overnight. The primary antibody was detected by incubation with horseradish peroxidase-coupled second antibody (1:3,000 in PBST with 5% milk) at room temperature for 2 h. The chemiluminescence detection was performed by using WesternLighting Chemiluminescence Reagent Plus (PerkinElmer LAS, Inc., Boston, Mass.). Films were developed using a standard photographic procedure and quantitative analysis of detected bands was carried out by densitometer scanning using VersaDoc Imaging System (BioRad Laboratories, Hercules, Calif.).
It has been reported that the effects of LPS on lethality and protein expression are dose-dependent (Barton and Jackson, Infect Immun. 1993; 61(4): 1496-1499; Haque et al., Pneumon. 2009; 22(2): 143-155). […] The serum levels of all three histone H3 were then measured and correlated to mortality. […]

TNF-α = assay: Serum TNF-α ELISA after small or large dose of LPS; assay type: in vivo, mice; conditions: 3 h after endotoxin insult
Procedure: There is general agreement that the main pathogenic mediator in lethal septic shock is TNF-α (Beutler and Cerami, Annu Rev Immunol. 7: 625-55, 1989). To determine whether TNF-α can predict lethality of LPS-induced shock as well as Cit H3, blood was collected from sham, LPS (SD), and LPS (LD) groups at 3 h after LPS injection (n=5/group). Quantitative determination of TNF-α in the blood of mice was made using Quantikine Enzyme-Linked Immunosorbent Assay (ELISA) Kit (R&D Systems, Minneapolis, Minn.) according to manufacturer's instruction. The concentration of the cytokine was measured by optical densitometry at 450 nm in a SpectramaxPlus 384 microplate reader (Molecular Devices, Sunnyvale, Calif.). All of the analyses were performed in triplicates.

## O=C(CCCCCCC(=O)Nc1ccccc1)NO [SAHA, suberoylanilide hydroxamic acid]
[1]
  survival: improves survival
Histone H3 in serum [2]
  histone H3 in serum (iTRAQ): decreased histone H3 in serum dramatically
HL-60 granulocytes; SAHA 10 μM + LPS 100 ng/ml
  Cit H3 in cultured cell medium (secretion): decreases; also recorded: no detectable
  H3 in cultured cell medium: no detectable
  acetylated H3 in cell lysates: increase
  expression of Cit H3 in cell lysates: decreases; also recorded: significantly reduced
Histone H3 in serum [3]; SAHA 50 mg/kg i.p. 2 h before and soon after LPS 20 mg/kg
  serum histone H3 (Western blot): no histone H3 was detected

## lipopolysaccharide [LPS]
mice; LPS LD (35 mg/kg i.p.)
  average survival time: about 20 h
  earliest time of death: ~16 h
  longest survival time: 23 h
  time by which all mice died: less than 23 h
  survival rate: 0%
mice; LPS LD (35 mg/kg i.p.), n = 10
  Mice died within 23 h: 10
mice; LPS SD (10 mg/kg i.p.)
  average survival time: ~146 h
  earliest time of death: 27 h
  survival rate: 90%
mice; LPS SD (10 mg/kg i.p.), 168 h observation
  longest survival time: 168 h
mice; LPS SD (10 mg/kg i.p.), n = 10
  Mice died within 23 h: None
  Mice survived over 168 h: 9
Serum Cit H3 and H3; LPS SD (10 mg/kg i.p.)
  Serum H3: increase
Serum Cit H3 and H3; all animals (LPS SD and LD)
  serum Ac H3: No Ac H3 was detected
HL-60 granulocytes; LPS 100 ng/ml
  Cit H3 in cultured cell medium: more
  H3 in cultured cell medium: more
HL-60 granulocytes; LPS 100 ng/ml, compared to sham
  Cit H3 in cell lysates: increase
TNF-α; LPS LD (35 mg/kg)
  serum TNF-α: 792 pg/mL
TNF-α; LPS SD (10 mg/kg)
  serum TNF-α: 741 pg/mL
Histone H3 in serum [3]; LPS 20 mg/kg i.p. without SAHA
  serum histone H3 (Western blot): a histone H3 band was clearly observed
